# US20090099177A1, “PYRIDYL COMPOUNDS” (priority 2006, published 2009)
# Where a name gives a salt, the structure may show the parent alone.
# Assays:
# [1] = target: T1, human prostanoid EP1 receptor (Homo sapiens, UniProt P34995); experiment: Binding assay for the human prostanoid EP1 receptor (competition with [3H]-PGE2); conditions: [3H]-PGE2 competition, human EP1, CHO-K1 membranes; averages of a number of experiments; read-out: pIC50 value (converted)
# T1 construct: expressed in transfected cells; host or cells: CHO-K1 (membrane fraction)
# T1 sequence (P34995 1-402): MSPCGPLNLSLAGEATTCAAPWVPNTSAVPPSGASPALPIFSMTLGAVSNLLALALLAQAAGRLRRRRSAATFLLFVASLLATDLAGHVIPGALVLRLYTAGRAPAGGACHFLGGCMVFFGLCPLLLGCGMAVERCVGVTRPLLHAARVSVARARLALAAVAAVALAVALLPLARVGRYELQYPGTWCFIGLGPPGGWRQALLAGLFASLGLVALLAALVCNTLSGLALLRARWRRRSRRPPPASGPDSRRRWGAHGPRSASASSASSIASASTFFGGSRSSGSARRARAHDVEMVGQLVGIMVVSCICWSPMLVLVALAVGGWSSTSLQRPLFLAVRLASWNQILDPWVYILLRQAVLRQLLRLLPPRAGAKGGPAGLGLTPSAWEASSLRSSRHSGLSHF
# Protocol: Competition assay using [^3H]-PGE2.
# Compound potencies are determined using a radioligand binding assay. In this assay compound potencies are determined from their ability to compete with tritiated prostaglandin E2 ([^3H]-PGE2) for binding to the human EP1 receptor.
# This assay utilises Chinese hamster ovary-K1 (CHO-K1) cells into which a stable vector containing the EP1 cDNA has previously been transfected. Cells are cultured in suitable flasks containing culture medium such as DMEM:F-12 supplemented with 10% v/v foetal calf serum, 2 mM L-glutamine, 0.25 mg/ml geneticin, 10 μg/ml puromycin and 10 μM indomethacin.
# Cells are detached from the culture flasks by incubation in calcium and magnesium free phosphate buffered saline containing 1 mM disodium ethylenediaminetetraacetic acid (Na2EDTA) and 10 μM indomethacin for 5 min. The cells are isolated by centrifugation at 250×g for 5mins and suspended in an ice cold buffer such as 50 mM Tris, 1 mM Na2EDTA, 140 mM NaCl, 10 μM indomethacin (pH 7.4). The cells are homogenised using a Polytron tissue disrupter (2×10 s burst at full setting), centrifuged at 48,000×g for 20mins and the pellet containing the membrane fraction is washed (optional) three times by suspension and centrifugation at 48,000×g for 20mins. The final membrane pellet is suspended in an assay buffer such as 10 mM 2-[N-morpholino]ethanesulphonic acid, 1 mM Na2EDTA, 10 mM MgCl2 (pH 6). Aliquots are frozen at −80° C. until required.
# For the binding assay the cell membranes, competing compounds and [^3H]-PGE2 (3 nM final assay concentration) are incubated in a final volume of 100 μl for 30 min at 30° C. All reagents are prepared in assay buffer. Reactions are terminated by rapid vacuum filtration over GF/B filters using a Brandell cell harvester. The filters are washed with ice cold assay buffer, dried and the radioactivity retained on the filters is measured by liquid scintillation counting in Packard TopCount scintillation counter.
# The data are analysed using non linear curve fitting techniques to determine the concentration of compound producing 50% inhibition of specific binding (IC50).
# human EP1 receptor = target: T2, human EP1 receptor (Homo sapiens, UniProt P34995); experiment: human EP1 calcium mobilisation assay; assay type: cell-based; conditions: for Ki: human EP1, CHO-K1 cells, antagonism of PGE2, averages of a number of experiments, read-out: functional pKi value (converted)
# T2 construct: expressed in transfected cells; host or cells: CHO-K1
# T2 sequence (P34995 1-402): T1 sequence (P34995 1-402)
# Protocol: Briefly, the antagonist properties of compounds are assessed by their ability to inhibit the mobilisation of intracellular calcium ([Ca^2+]i) in response to activation of EP1 or EP3 receptors by the natural agonist hormone prostaglandin E2 (PGE2). Increasing concentrations of antagonist reduce the amount of calcium that a given concentration of PGE2 can mobilise. The net effect is to displace the PGE2 concentration-effect curve to higher concentrations of PGE2. The amount of calcium produced is assessed using a calcium-sensitive fluorescent dye such as Fluo-4, AM and a suitable instrument such as a Fluorimetric Imaging Plate Reader (FLIPR). Increasing amounts of [Ca^2+]i produced by receptor activation increase the amount of fluorescence produced by the dye and give rise to an increasing signal. The signal may be detected using the FLIPR instrument and the data generated may be analysed with suitable curve-fitting software.
# The human EP1 or EP3 calcium mobilisation assay (hereafter referred to as ‘the calcium assay’) utilises Chinese hamster ovary-K1 (CHO-K1) cells into which a stable (pCIN; BioTechniques 20 (1996): 102-110) vector containing either EP1 or EP3 cDNA has previously been transfected. Cells are cultured in suitable flasks containing culture medium such as DMEM:F-12 supplemented with 10% v/v foetal calf serum, 2 mM L-glutamine, 0.25 mg/ml geneticin, 100 μM flurbiprofen and 10 μg/ml puromycin.
# For assay, cells are harvested using a proprietary reagent that dislodges cells such as Versene. Cells are re-suspended in a suitable quantity of fresh culture media for introduction into a 384-well plate. Following incubation for 24 hours at 37° C. the culture media is replaced with a medium containing Fluo-4 and the detergent pluronic acid, and a further incubation takes place. Concentrations of compounds are then added to the plate in order to construct concentration-effect curves. This may be performed on the FLIPR in order to assess the agonist properties of the compounds. Concentrations of PGE2 are then added to the plate in order to assess the antagonist properties of the compounds.
# The data so generated may be analysed by means of a computerised curve-fitting routine. The concentration of compound that elicits a half-maximal inhibition of the calcium mobilisation induced by PGE2 (pIC50) may then be estimated.
SMILES,IC50 [1] [µM],"IC50 (human EP1 receptor; human EP1 calcium mobilisation assay, read-out: pIC50 values (converted)) [µM]",Ki (human EP1 receptor) [µM]
"CN(C)Cc1ccc2nc(-c3cccc(Cc4cc(Cl)ccc4OCc4ccc(Cl)cc4F)n3)[nH]c2c1 [Example 58, [(2-{6-[(5-Chloro-2-{[(4-chloro-2-fluorophenyl)methyl]oxy}phenyl)methyl]-2-pyridinyl}-1H-benzimidazol-5-yl)methyl]dimethylamine Hydrochloride]",≤ 0.1,> 10,–
"Fc1ccc2[nH]c(-c3cccc(Cc4cc(Cl)ccc4OCc4ccccc4)n3)nc2c1 [Example 36, 2-[6-({5-Chloro-2-[(phenylmethyl)oxy]phenyl}methyl)-2-pyridinyl]-5-fluoro-1H-benzimidazolehydrochloride]",≤ 0.1,–,≤ 0.316
"COc1ccc2[nH]c(-c3cccc(Cc4cc(Cl)ccc4OCc4ccccc4)n3)nc2c1 [Example 31, 2-[6-({5-Chloro-2-[(phenylmethyl)oxy]phenyl}methyl)-2-pyridinyl]-5-(methyloxy)-1H-benzimidazolehydrochloride]",≤ 0.1,–,≤ 0.316
"Fc1cc(Cl)ccc1COc1ccc(Cl)cc1Cc1cccc(-c2nc3ccccc3[nH]2)n1 [Example 19, 2-{6-[(5-Chloro-2-[([(4-chloro-2-fluorophenyl)methyl]oxy}phenyl)methyl]-2-pyridinyl]-1H-benzimidazole Hydrochloride]",≤ 0.1,–,≤ 0.316
"Clc1ccc(OCc2ccccc2)c(Cc2cccc(-c3nc4ccccc4[nH]3)n2)c1 [Example 34, 2-[6-({5-Chloro-2-[(phenylmethyl)oxy]phenyl}methyl)-2-pyridinyl]-1H-benzimidazole hydrochloride]",≤ 0.1,–,≤ 0.316
"CC(C)COc1ccc(Cl)cc1Cc1cccc(-c2nc3nccnc3[nH]2)n1 [Example 22, 2-[6-({5-Chloro-2-[(2-methylpropyl)oxy]phenyl}methyl)-2-pyridinyl]-1H-imidazo[4,5-b]pyrazine hydrochloride]",≤ 0.1,–,≤ 0.316
"Fc1cc(Cl)ccc1COc1ccc(Cl)cc1Cc1cccc(-c2nc3cncnc3[nH]2)n1 [Example 20, 8-{6-[(5-Chloro-2-{[(4-chloro-2-fluorophenyl)methyl]oxy}phenyl)methyl]-2-pyridinyl}-1H-purinehydrochloride]",≤ 0.1,–,≤ 0.316
"CNCc1ccc2nc(-c3cccc(Cc4cc(Cl)ccc4OCC(C)C)n3)[nH]c2c1 [Example 52, ({2-[6-({5-Chloro-2-[(2-methylpropyl)oxy]phenyl}methyl)-2-pyridinyl]-1H-benzimidazol-5-yl}methyl)methylaminehydrochloride]",≤ 0.1,–,≤ 0.316
"CN(CCC#N)Cc1ccc(NC(=O)c2cccc(Cc3cc(Cl)ccc3OCc3ccc(Cl)cc3F)n2)cc1 [Example 57, 6-[(5-Chloro-2-{[(4-chloro-2-fluorophenyl)methyl]oxy}phenyl)methyl]-N-(4-{[(2-cyanoethyl)(methyl)amino]methyl}phenyl)-2-pyridinecarboxamide]",≤ 0.1,–,≤ 10
"O=C(Nc1ccc(CO)cc1)c1cccc(Cc2cc(Cl)ccc2OCc2ccc(Cl)cc2F)n1 [Example 13, 6-[(5-Chloro-2-{[(4-chloro-2-fluorophenyl)methyl]oxy}phenyl)methyl]-N-[4-(hydroxymethyl)phenyl]-2-pyridinecarboxamide]",≤ 0.1,–,≤ 10
"CN(C)c1ccc2nc(-c3cccc(Cc4cc(Cl)ccc4OCc4ccccc4)n3)[nH]c2c1 [Example 27, 2-[6-({5-Chloro-2-[(phenylmethyl)oxy]phenyl}methyl)-2-pyridinyl]-N,N-dimethyl-1H-benzimidazol-5-aminehydrochloride]",≤ 0.1,–,≤ 10
"Clc1ccc(OCc2ccccc2)c(Cc2cccc(-c3nc4cc(Cl)ccc4[nH]3)n2)c1 [Example 35, 5-Chloro-2-[6-({5-Chloro-2-[(phenylmethyl)oxy]phenyl}methyl)-2-pyridinyl]-1H-benzimidazole hydrochloride]",≤ 0.1,–,≤ 0.316
"Clc1ccc(OCc2ccccc2)c(Cc2cccc(-c3nc4ccc(N5CCOCC5)cc4[nH]3)n2)c1 [Example 28, 2-[6-({5-Chloro-2-[(phenylmethyl)oxy]phenyl}methyl)-2-pyridinyl]-5-(4-morpholinyl)-1H-benzimidazolehydrochloride]",≤ 0.1,–,≤ 0.316
"CC(C)COc1ccc(Cl)cc1Cc1cccc(-c2nc3ccccc3[nH]2)n1 [Example 44, 2-[6-({5-Chloro-2-[(2-methylpropyl)oxy]phenyl}methyl)-2-pyridinyl]-1H-benzimidazole]",≤ 0.1,–,≤ 0.316

# Next, values leading:
IC50 [1] [µM],"IC50 (human EP1 receptor; human EP1 calcium mobilisation assay, read-out: pIC50 values (converted)) [µM]",Ki (human EP1 receptor) [µM],SMILES
≤ 0.1,–,≤ 0.316,"CC(C)(C)CC(=O)Nc1cccc(Cc2cc(Cl)ccc2OCc2ccccc2)n1 [Example 5, N-[6-({5-Chloro-2-[(phenylmethyl)oxy]phenyl}methyl)-2-pyridinyl]-3,3-dimethylbutanamide]"
≤ 0.1,–,≤ 10,"Cc1ccc2[nH]c(-c3cccc(Cc4cc(Cl)ccc4OCc4ccccc4)n3)nc2c1 [Example 29, 2-[6-({5-Chloro-2-[(phenylmethyl)oxy]phenyl}methyl)-2-pyridinyl]-5-methyl-1H-benzimidazole Hydrochloride]"
≤ 0.1,–,≤ 0.316,"CC(C)(C)OC(=O)Nc1cccc(Cc2cc(Cl)ccc2OCc2ccc(Cl)cc2F)n1 [Example 61, 1,1-Dimethylethyl {6-[(5-chloro-2-{[(4-chloro-2-fluorophenyl)methyl]oxy}phenyl)methyl]-2-pyridinyl}carbamate Hydrochloride]"
≤ 0.1,–,≤ 0.316,"Clc1ccc(OCc2ccccc2)c(Cc2cccc(-c3nc4ncccc4[nH]3)n2)c1 [Example 30, 2-[6-({5-Chloro-2-[(phenylmethyl)oxy]phenyl}methyl)-2-pyridinyl]-1H-imidazo[4,5-b]pyridinehydrochloride]"
≤ 0.1,–,≤ 0.316,"O=C(Nc1cccc(Cc2cc(Cl)ccc2OCc2ccccc2)n1)C1CCCCC1 [Example 4, N-[6-({5-Chloro-2-[(phenylmethyl)oxy]phenyl}methyl)-2-pyridinyl]cyclohexanecarboxamide]"
≤ 0.1,–,≤ 10,"CC(C)COc1ccc(Cl)cc1Cc1cccc(NC(=O)c2ccc(CO)cc2)n1 [Example 62, N-[6-({5-Chloro-2-[(2-methylpropyl)oxy]phenyl}methyl)-2-pyridinyl]-4-(hydroxymethyl)benzamide]"
